Data on 29 compounds can be found in patent US5972975A, “Substituted 2-aminopyridines as inhibitors of nitric oxide synthase” (priority 1997, dated 1999).

Counter-ions that a name gives are not always drawn.

Assay [1] addresses iNOS (Homo sapiens, UniProt P35228). Description: NOS activity: L-[3H]citrulline formation from L-[3H]arginine, iNOS. The assay is classed as biochemical. The following applies: Table 2; iNOS; 1 μM L-Arg, pH 7.5, room temperature, 30 minutes; read-out: iNOS (IC50). The method, then: (§1) NOS activity is measured as the formation of L-[2,3,4,5-^3 H]Citrullinefrom L-[2,3,4,5-^3 H]Arginine. The incubation buffer (100 μL) contained; 100 mM TES, pH 7.5, 5 μM FAD, 5 μM FMN, 10 μM BH4, 0.5 mM NADPH, 0.5 mM DTT, 0.5 mg/mL BSA, 2 mM CaCl2, 10 μg/mL calmodulin (bovine), 1 μM L-Arg, 0.2 μCi L-[2,3,4,5-^3 H]Arg, and the inhibitor in aqueous DMSO (max. 5%). The reaction is initiated by addition of enzyme. Incubations are performed at room temperature for 30 minutes and stopped by the addition of an equal volume of quenching buffer consisting of 200 mM sodium citrate, pH 2.2, 0.02% sodium azide. Reaction products are separated by passing through a cation exchange resin and quantitated as cpm by scintillation counting.

Assay [2] addresses ecNOS (Homo sapiens, UniProt P29474). Put plainly: NOS activity: L-[3H]citrulline formation from L-[3H]arginine, ecNOS. As to conditions: Table 2; ecNOS; 1 μM L-Arg, pH 7.5, room temperature, 30 minutes; read-out: ecNOS (IC50). The assay is classed as biochemical. The method, then:
as §1

For assay [3], the target named is ncNOS (Homo sapiens, UniProt P29475). Description: biochemical. The following applies: Table 2; ncNOS; 1 μM L-Arg, pH 7.5, room temperature, 30 minutes; read-out: ncNOS (IC50).
Chain of ncNOS (P29475 whole entry): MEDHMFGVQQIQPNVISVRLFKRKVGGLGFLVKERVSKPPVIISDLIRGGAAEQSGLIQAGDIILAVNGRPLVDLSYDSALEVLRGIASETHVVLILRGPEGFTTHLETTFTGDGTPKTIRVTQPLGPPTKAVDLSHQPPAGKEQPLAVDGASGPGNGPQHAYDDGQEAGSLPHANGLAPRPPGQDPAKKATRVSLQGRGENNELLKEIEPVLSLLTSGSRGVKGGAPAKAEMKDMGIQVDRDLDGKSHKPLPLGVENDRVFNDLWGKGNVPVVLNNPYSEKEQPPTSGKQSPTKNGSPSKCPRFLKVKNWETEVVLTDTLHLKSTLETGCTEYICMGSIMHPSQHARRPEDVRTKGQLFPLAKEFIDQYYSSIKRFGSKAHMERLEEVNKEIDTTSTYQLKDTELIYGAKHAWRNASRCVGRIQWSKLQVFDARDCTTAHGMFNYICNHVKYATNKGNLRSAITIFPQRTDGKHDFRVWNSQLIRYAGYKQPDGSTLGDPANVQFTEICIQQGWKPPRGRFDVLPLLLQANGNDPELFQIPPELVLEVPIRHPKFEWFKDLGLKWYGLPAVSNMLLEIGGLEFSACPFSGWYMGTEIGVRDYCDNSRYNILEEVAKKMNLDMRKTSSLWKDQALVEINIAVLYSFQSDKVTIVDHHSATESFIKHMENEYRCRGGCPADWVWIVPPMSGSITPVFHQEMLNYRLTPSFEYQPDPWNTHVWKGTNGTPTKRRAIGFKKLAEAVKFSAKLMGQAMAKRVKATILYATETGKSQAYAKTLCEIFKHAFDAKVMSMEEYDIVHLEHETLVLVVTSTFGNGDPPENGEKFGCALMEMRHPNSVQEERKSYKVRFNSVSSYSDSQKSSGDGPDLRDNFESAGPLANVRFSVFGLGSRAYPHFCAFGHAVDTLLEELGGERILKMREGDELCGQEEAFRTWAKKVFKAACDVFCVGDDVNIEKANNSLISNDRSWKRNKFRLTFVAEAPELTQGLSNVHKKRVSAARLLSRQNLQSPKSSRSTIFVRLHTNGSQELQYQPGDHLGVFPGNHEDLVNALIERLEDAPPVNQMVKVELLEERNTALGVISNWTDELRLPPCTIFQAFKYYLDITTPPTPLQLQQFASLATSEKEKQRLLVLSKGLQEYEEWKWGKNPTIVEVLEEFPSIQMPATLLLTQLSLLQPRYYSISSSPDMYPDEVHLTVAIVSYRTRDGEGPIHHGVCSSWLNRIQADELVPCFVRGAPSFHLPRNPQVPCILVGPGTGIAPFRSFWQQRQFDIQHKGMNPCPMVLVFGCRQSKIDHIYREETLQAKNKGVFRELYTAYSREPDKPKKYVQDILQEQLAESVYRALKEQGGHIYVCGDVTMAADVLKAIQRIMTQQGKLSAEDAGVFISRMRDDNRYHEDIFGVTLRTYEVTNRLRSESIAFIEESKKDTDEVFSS

Consider `Cc1cc(N)ncc1C(=O)O` [Example 43, 2-Amino-5-carboxy-4-methylpyridine], for which the IC50 in assay [1], in assay [2] and in assay [3] was over 50 µM each time.

`Cc1cc(N)ncc1CN` [Example 45, 2-Amino-5-aminomethyl-4-methylpyridine dihydrochloride]: the IC50 in assay [1] was under 10 µM; in assay [2], under 10 µM; in assay [3], under 50 µM.

For `CC(=O)NCc1cnc(N)cc1C` [Example 46, 2-Amino-5-acetamidomethyl-4-methylpyridine], the IC50 was under 10 µM in assay [1], over 50 µM in assay [2] and over 50 µM in assay [3].

In the case of `Nc1ncccc1OCC[C@H](N)C(=O)O` [Example 48, 2-(2-Amino-3-pyridinoxy)-ethyl-(S)-glycine dihydrochloride], the IC50 was under 50 µM in assay [1], under 10 µM in assay [2] and under 50 µM in assay [3].

In the case of `Cc1cnc(N)cc1C` [Example 49, 2-Amino-4,5-dimethylpyridine hydrochloride], the IC50 in assay [1], in assay [2] and in assay [3] was under 1 µM each time.

On to `Cc1cnc(N)c(C)c1` [Example 50, 2-Amino-3,5-dimethylpyridine], for which the IC50 was under 50 µM in assay [1], under 10 µM in assay [2] and under 10 µM in assay [3].

As to `Cc1ccc(N)nc1C` [Example 51, 2-Amino-5,6-dimethylpyridine], the IC50 in assay [1], in assay [2] and in assay [3] was under 10 µM throughout.

Regarding `CCc1cccc(N)n1` [Example 52, 2-Amino-6-ethylpyridine], the IC50 in assay [1], in assay [2] and in assay [3] was under 1 µM throughout.

As for `C=CCCc1cc(C)cc(N)n1` [Example 53, 2-Amino-6-(3-buten-1-yl)-4-methylpyridine], the IC50 in assay [1], in assay [2] and in assay [3] was under 1 µM throughout.

`CCc1cc(C)cc(N)n1` [Example 54, 2-Amino-6-ethyl-4-methylpyridine]: the IC50 in assay [1], in assay [2] and in assay [3] was under 1 µM each time.

`Cc1cc(N)nc(C(C)C)c1` [Example 55, 2-Amino-4-methyl-6-(1-methylethyl)pyridine]: the IC50 in assay [1] was under 1 µM; in assay [2], under 1 µM; in assay [3], under 10 µM.

Regarding `Cc1cc(N)nc(CCCCN)c1` [Example 56, 2-Amino-6-(4-aminobutyl)-4-methylpyridine], the IC50 in assay [1] was under 1 µM; in assay [2], under 10 µM; in assay [3] it was under 1 µM.

`CC(=O)NCCCCc1cc(C)cc(N)n1` [Example 57, 6-(4-Acetamidobutyl)-2-amino-4-methylpyridine]: the IC50 in assay [1] was under 10 µM; in assay [2] it was under 10 µM; in assay [3], under 1 µM.

In the case of `Cc1cc(N)nc(CCO)c1` [Example 58, 2-Amino-6-(2-hydroxyethyl)-4-methylpyridine], the IC50 in assay [1], in assay [2] and in assay [3] was under 1 µM each time.

`Cc1cc(N)nc(CCC(N)C(=O)O)c1` (stereo not drawn) [Example 59, α-(2-(6-Amino-4-methylpyrid-2-yl)ethyl)glycine dihydrochloride]: the IC50 in assay [1], in assay [2] and in assay [3] was under 1 µM in each case.

Consider `Nc1cccc(Cc2ccccc2)n1` [Example 61, 2-Amino-6-benzylpyridine], for which the figures for the IC50 in assay [1], in assay [2] and in assay [3] were under 50 µM, over 50 µM and under 50 µM, respectively.

Consider `Cc1cc(N)nc2c1CCCC2` [Example 63, 2-Amino-4-methyl-5,6,7,8-tetrahydroquinoline], for which the figures for the IC50 in assay [1], in assay [2] and in assay [3] were under 10 µM, under 50 µM and under 10 µM, respectively.

On to `Nc1nccc2c1CCCC2` [Example 65, 1-Amino-5,6,7,8-tetrahydroisoquinoline], for which the IC50 in assay [1], in assay [2] and in assay [3] was under 50 µM in each case.

Take `Cc1cc(N)nc(CCCN)c1` [Example 66, 2-Amino-6-(3-aminopropyl)-4-methylpyridine]: the IC50 in assay [1] was under 1 µM; in assay [2], under 10 µM; in assay [3], under 1 µM.

As to `Cc1cc(N)nc(CCN)c1` [Example 67, 2-Amino-6-(2-aminoethyl)-4-methylpyridine], the IC50 in assay [1] was under 1 µM; in assay [2] it was under 50 µM; in assay [3], under 1 µM.

In the case of `Cc1cc(N)nc(CCCc2ccccc2)c1` [Example 69, 2-Amino-4-methyl-6-(3-phenylpropyl)pyridine], the IC50 in assay [1] is under 50 µM; in assay [2], under 50 µM; in assay [3] it was under 10 µM.

For `Cc1cc(N)nc(CCCCc2ccccc2)c1` [Example 70, 2-Amino-4-methyl-6-(4-phenylbutyl)pyridine], the IC50 in assay [1], in assay [2] and in assay [3] was under 10 µM in each case.

With `Cc1cc(N)nc(CCC(C)C)c1` [Example 71, 2-Amino-4-methyl-6-(3-methylbutyl)pyridine], the IC50 was under 1 µM in assay [1], under 10 µM in assay [2] and under 1 µM in assay [3].

In the case of `Cc1cc(N)nc(CC(C)C)c1` [Example 72, 2-Amino-4-methyl-6-(2-methylpropyl)pyridine], the IC50 in assay [1], in assay [2] and in assay [3] was under 1 µM each time.

In the case of `Cc1cc(N)nc(CCc2ccccc2)c1` [Example 73, 2-Amino-4-methyl-6-(2-phenylethyl)pyridine], the IC50 in assay [1], in assay [2] and in assay [3] was under 10 µM throughout.

Regarding `Cc1cc(N)nc(CCCCC(=O)O)c1` [Example 74, 5-(6-Amino-4-methyl-2-pyridinyl)pentanoic acid hydrochloride], the IC50 in assay [1] is under 10 µM; in assay [2], under 1 µM; in assay [3] it was under 10 µM.

Consider `Cc1cc(N)nc(CCCC(=O)O)c1` [Example 75, 4-(6-Amino-4-methyl-2-pyridinyl)butanoic acid hydrochloride], for which the concentration for half-maximal inhibition (IC50) in assay [1] was under 10 µM; in assay [2], under 1 µM; in assay [3], under 10 µM.

As to `Cc1cc(N)nc(CC[C@H](C)N)c1` [Example 76, (S)-2-Amino-6-(3-aminobutyl)-4-methylpyridine], the IC50 was under 1 µM in assay [1], under 10 µM in assay [2] and under 1 µM in assay [3].

In the case of `Cc1cc(N)nc(CC[C@@H](C)N)c1` [Example 77, (R)-2-Amino-6-(3-aminobutyl)-4-methylpyridine], the results for the IC50 in assay [1], in assay [2] and in assay [3] were under 10 µM, under 50 µM and under 1 µM, respectively.
